Assay results as given in US6348211B1, “Compositions and methods for treatment of attention deficit disorder and attention deficit/hyperactivity disorder with methylphenidate” (Noven Pharmaceuticals, Inc., priority 1997, dated 2002).

Legend:
[1] = among the four enantiomers of methylphenidate; cited from earlier work
[2] = Degradation of methylphenidate in topical composition in the presence of acid functional groups; format: physicochemical; conditions: with every 1% increase by weight in acid functional component of the topical composition
From the text: It has been discovered that methylphenidate, and in particular the base form, can be unstable and undergoes degradation in the presence of acid functional groups which are contained in adhesives, enhancers, excipients and other components of the topical composition. The major degradant/metabolite appears to be ritalinic acid, which increases about ten fold with every 1% increase by weight in such acid functional component. Such degradation can greatly reduce the amount of the active enantiomer during storage of the topical composition, thus reducing the amount of active methylphenidate available for drug delivery.

Compound | activity of enantiomer [1] | increase of major degradant ritalinic acid [2]
COC(=O)[C@H](c1ccccc1)[C@H]1CCCCN1 [d-threo-methylphenidate] | significantly active | –
COC(=O)C(c1ccccc1)C1CCCCN1 (centres unmarked) [Methylphenidate] | – | about ten fold
